Laboratory results as given in patent US20240165043A1, “COMPOSITIONS FOR THE TREATMENT OF A DISEASE OF THE URINARY TRACT AND TREATMENT OF A DISEASE INVOLVING THE INTRACELLULAR DELIVERY OF THE PARTICLE OR A MEDICAMENT CONTAINED THEREIN” (UCL BUSINESS LTD, priority 2018, published 2024).

What was measured:
[1] = test system: HBLAK-derived bladder organoids; assay: Cell toxicity assay (LDH release); type: cell-based, human; conditions: CapFuran 2 mg/ml; equivalent free nitrofurantoin 200 mg/ml as printed; 60 minutes; N=6
Procedure: A colorimetric […] (LDH) assay kit (Thermo Scientific) was used to measure potential cell damage from CapFuran or nitrofurantoin. The procedure was carried out as directed by the manufacturer. HBLAK-derived bladder organoids were grown for 14 days then exposed to 1000 μl of culture media (control) or 1000 μl of culture media containing CapFuran 1 mg/ml; CapFuran 2 mg/ml; 100 μg/ml unencapsulated nitrofurantoin; 200 μg/ml Nitrofurantoin; 100 μl of 10× lysis buffer (maximum LDH control); or culture medium containing 10% ultra-pure water (to measure spontaneous LDH release). Experiments were carried out in triplicates. All organoids were subsequently incubated for 60 minutes at […] in 5% CO2. After incubation, 50 μl of medium from the apical chamber of each treated organoid was transferred to 3 wells of a flat-bottomed […] (Corning). […] To quantify the amount of LDH released, the 96 well plate was read using a colorimetric sphectrophotometer (Biochrom EZ Read 400) at an absorbance of 492 nm and 650 nm. Microsoft Excel was used to subtract the background reading from the LDH reading before calculating cytotoxicity in % using the following formula: % Cytotoxicity=Treatment associated LDH release−Spontaneous LDH release×100 Maximum LDH activity−Spontaneous LDH release

[2] = test system: human bladder epithelial cells (HBLAK); assay: Cellular uptake of cargo, two-dimensional monolayer; type: cell-based; conditions: free FITC at 2.5 mg/mL
Text: Commercially available human bladder epithelial cells (HBLAK, CelINTec), which are a spontaneously immortalised, non-transformed derivative of progenitor cells that retain the ability to differentiate, were supplied in frozen aliquots containing ˜5×10^5 cells at passage 2 and ˜0.5×10^5 at passage 25 respectively. The progenitor cells had been isolated from bladder trigone biopsies from male patients undergoing surgery for benign prostatic hyperplasia. HBLAK cells were used up until passage 40-50.
Thawed cells were seeded (˜300 cell clumps/cm^2) into pre-warmed and equilibrated low-calcium, high-bovine pituitary extract, primary epithelial medium (CnT-Prime, Cell N Tec) in 9 cm polystyrene dishes and incubated at 37° C. in a humidified incubator under 5% CO2. Culture medium was replaced after overnight incubation to remove residual dimethyl sulfoxide (DMSO). Antibiotics were not added to culture medium at any point due to adverse effects on cytodifferentiation, metabolism and morphology. […]
(§1) We performed epi-fluorescence microscopy on an Olympus CX-41 upright microscope, and confocal laser scanning microscopy on Leica SP5 and SP2 microscopes. […] For both still and live imaging, images were processed and analysed using Infinity Capture and Analyze V6.2.0, ImageJ 1.50 h 50 and the Leica Application Suite, Advanced Fluorescence 3.1.0 build 8587 Software.

[3] = test system: human urothelial organoid model; assay: Cellular uptake of cargo, three-dimensional bladder organoid; type: cell-based; conditions: two hours of treatment; free FITC at equivalent amount (14 ug/mL)
Procedure: The three-dimensional bladder organoid model has been described (Horsley et al, 2017, https://doi.org/10.1101/152033). Briefly, organoids were created as follows. In preparation for organotypic culture, previously frozen cells were thawed and expanded on 9 cm culture dishes as above. Once 70-80% confluent, the cells were washed briefly with calcium- and magnesium-free phosphate buffered saline (PBS, Sigma-Aldrich) and incubated at 37° C. in ˜3 ml of pre-warmed Accutase solution for 2-5 min. The dishes were lightly tapped and detached cells re-suspended in 7 ml of warm CnT-Prime. After centrifugation at 200×g for 5 min, the supernatant was removed and the pellet re-suspended in fresh CnT-Prime. This cell suspension was counted whilst allowing the cells to equilibrate for 3 min at room temperature. […]
The 3D culture inserts were incubated for 3-5 days until 100% confluent. Confluency was determined through the fluorescent staining of 1 insert and visualisation under epi-fluorescence microscopy (see section below). […]
as §1

Compound | Cytotoxicity (LDH release), mean [1] | FITC staining of cells by free diffusion [2] | FITC penetration through cell layers [3]
O=C1CN(/N=C/c2ccc([N+](=O)[O-])o2)C(=O)N1 [nitrofurantoin] | 6.60% | – | –
fluorescein isothiocyanate [free FITC] | – | faint green staining to all cells | negligible penetration
